The molecules below were run against T1, CDK5-p25 kinase (Homo sapiens, UniProt Q00535) (assay: CDK5-p25 kinase enzymatic assay). Settings: 0.3 nM CDK5-p25, 1.5 uM peptide, 5 uM ATP; X marks bin 50 nM-99 nM; read-out: IC50 potency, 50 nM-99 nM.
T1 construct: purchased Invitrogen PV4677
T1 sequence (Q00535 whole entry): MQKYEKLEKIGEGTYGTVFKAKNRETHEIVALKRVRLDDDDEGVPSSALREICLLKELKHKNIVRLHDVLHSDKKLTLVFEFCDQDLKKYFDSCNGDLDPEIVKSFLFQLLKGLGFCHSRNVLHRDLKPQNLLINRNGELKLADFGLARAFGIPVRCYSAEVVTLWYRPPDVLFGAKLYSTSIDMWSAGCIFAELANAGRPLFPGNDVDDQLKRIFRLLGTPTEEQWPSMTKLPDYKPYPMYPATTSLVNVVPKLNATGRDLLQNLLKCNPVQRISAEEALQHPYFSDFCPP
T1 sequence (Q15078 99-307 partner limits assumed): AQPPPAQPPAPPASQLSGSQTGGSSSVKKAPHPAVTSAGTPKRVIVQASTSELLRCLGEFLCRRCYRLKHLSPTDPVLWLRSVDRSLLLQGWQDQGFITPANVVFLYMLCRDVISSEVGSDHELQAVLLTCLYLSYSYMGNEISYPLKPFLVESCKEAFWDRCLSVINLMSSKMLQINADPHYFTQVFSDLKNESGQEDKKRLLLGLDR
Type: biochemical
Description: CDK5-p25 kinase (Invitrogen PV4677) enzymatic activity was measured using electrophoretic separation and fluorescent detection to monitor phosphorylation of a fluorescently labeled histone H1-derived peptide substrate, FL29 (5-FAM-GGGPATPKKAKKL-CONH2, Caliper #760429)
First, 0.25 uL of serially diluted compound in DMSO at 100× concentration was transferred into each well of a 384-well polystyrene assay plate. To this was added 15 uL of a 1.67× enzyme solution (500 pM enzyme, 1 mM DTT (Sigma D9779), 1× reconstitution buffer with protease inhibitor (Caliper #700329 proprietary formulation)), followed by centrifugation for 1 min at 1000 rpm, and incubation for 5-15 min at room temperature to allow binding of compound to enzyme. To initiate the reaction, 10 uL of substrate/ATP mix (245 mM Hepes pH 7.5, 0.003% Brij 35, 0.004% Tween, 12.75 uM ATP, 3.75 uM FL29 peptide) were added to each well, followed by centrifugation at 1000 rpm for 1 min. The reaction was then incubated at room temperature for 30 min. Final assay conditions were: 0.3 nM CDK5-p25, 1.5 uM peptide, 5 uM ATP, 0.6 mM DTT, 1% DMSO, 98 mM HEPES pH 7.5.
After incubation, reactions were quenched by the addition of 45 uL Caliper termination solution (Caliper proprietary formula), followed by centrifugation at 1000 rpm for 1 min. Extent of reaction (percentage conversion of substrate to phosphorylated product) was then measured using the Caliper EZ II reader. Dose-response curves were created by plotting the inhibition of enzyme activity (normalized relative to vehicle treated and no ATP control reactions) as a function of the log of compound concentration. The curve was analyzed using a four parameter logistical fit to calculate IC50 values.
Work on `CC(C)(C)c1ccc(Cc2cc(=O)c3c(C4CCC4)[nH]nc3[nH]2)cc1` [Example 4, 6-(4-tert-butylbenzyl)-3-cyclobutyl-2,7-dihydro-4H-pyrazolo[3,4-b]pyridin-4-one] yielded an IC50 of 50 to 99 nM.
In the case of `O=c1cc(Cc2ccc(-c3ccccc3)cc2)[nH]c2n[nH]c(C3CCC3)c12` [Example 3, 6-(biphenyl-4-ylmethyl)-3-cyclobutyl-2,7-dihydro-4H-pyrazolo[3,4-b]pyridin-4-one], the IC50 is reported as 50 to 99 nM.

Same assay, conditions: 0.3 nM CDK5-p25, 1.5 uM peptide, 5 uM ATP; X marks bin 100 nM-499 nM; read-out: IC50 potency, 100 nM-499 nM
Work on `O=c1cc(CC2CCCCC2)[nH]c2n[nH]c(C3CCC3)c12` [Example 7, 3-cyclobutyl-6-(cyclohexylmethyl)-2,7-dihydro-4H-pyrazolo[3,4-b]pyridin-4-one] yielded an IC50 of 100 to 499 nM.
`O=c1cc(Cc2c(F)cccc2Cl)[nH]c2n[nH]c(C3CCC3)c12` [Example 2, 6-(2-chloro-6-fluorobenzyl)-3-cyclobutyl-2,7-dihydro-4H-pyrazolo[3,4-b]pyridin-4-one] gave an IC50 of 100 to 499 nM.
`O=c1cc(Cc2ccccc2-c2ccccc2)[nH]c2n[nH]c(C3CCC3)c12` [Example 5, 6-(biphenyl-2-ylmethyl)-3-cyclobutyl-2,7-dihydro-4H-pyrazolo[3,4-b]pyridin-4-one] showed an IC50 of 100 to 499 nM.

Same assay, conditions: 0.3 nM CDK5-p25, 1.5 uM peptide, 5 uM ATP; X marks bin 500 nM-3 μM; read-out: IC50 potency, 500 nM-3 μM
`O=c1cc(Cc2ccc3ccccc3c2)[nH]c2n[nH]c([C@H]3C[C@@H](O)C3)c12` [Example 11, 3-(cis-3-hydroxycyclobutyl)-6-(naphthalen-2-ylmethyl)-2,7-dihydro-4H-pyrazolo[3,4-b]pyridin-4-one] showed an IC50 of 500 to 3000 nM.
For `O=c1cc(Cc2ccc3ccccc3c2)[nH]c2n[nH]c(C3CC(F)(F)C3)c12` [Example 9, 3-(3,3-difluorocyclobutyl)-6-(naphthalen-2-ylmethyl)-2,7-dihydro-4H-pyrazolo[3,4-b]pyridin-4-one], the IC50 was 500 to 3000 nM.

Same assay, conditions: 0.3 nM CDK5-p25, 1.5 uM peptide, 5 uM ATP; X marks bin <50 nM; read-out: IC50 potency, <50 nM
`O=c1cc(Cc2ccc3ccccc3c2)[nH]c2n[nH]c([C@H]3C[C@H](O)C3)c12` [Example 10, 3-(trans-3-hydroxycyclobutyl)-6-(naphthalen-2-ylmethyl)-2,7-dihydro-4H-pyrazolo[3,4-b]pyridin-4-one] was tested, and the IC50 was less than 50 nM.
Work on `O=c1cc(Cc2ccc(Cl)c(Cl)c2)[nH]c2n[nH]c(C3CCC3)c12` [Example 6, 3-cyclobutyl-6-(3,4-dichlorobenzyl)-2,7-dihydro-4H-pyrazolo[3,4-b]pyridin-4-one] yielded an IC50 of less than 50 nM.
Molecule `O=C1CC(c2[nH]nc3[nH]c(Cc4ccc5ccccc5c4)cc(=O)c23)C1` [Example 12, 6-(naphthalen-2-ylmethyl)-3-(3-oxocyclobutyl)-2,7-dihydro-4H-pyrazolo[3,4-b]pyridin-4-one] has an IC50 of less than 50 nM.
In the case of `O=c1cc(Cc2cc(F)cc(Cl)c2)[nH]c2n[nH]c(C3CCC3)c12` [Example 8, 6-(3-chloro-5-fluorobenzyl)-3-cyclobutyl-2,7-dihydro-4H-pyrazolo[3,4-b]pyridin-4-one], the IC50 is reported as less than 50 nM.
In the case of `O=c1cc(Cc2ccc3ccccc3c2)[nH]c2n[nH]c(C3CCC3)c12` [Example 1, 3-cyclobutyl-6-(2-naphthylmethyl)-2,7-dihydro-4H-pyrazolo[3,4-b]pyridin-4-one], the IC50 is reported as less than 50 nM.

Reference: patent publication US20120220624A1, “PYRAZOLO [3,4-B] PYRIDIN-4-ONE KINASE INHIBITORS” (priority 2009, published 2012)
